Test results taken from ChEMBL document CHEMBL1140624, “Improved biochemical strategies for targeted delivery of taxoids” (Bioorg Med Chem, 2007).
Values after ≈ are worked out from the molar mass of the structure shown. Active and inactive are the calls of the source. No cut-off for these calls is given here.

Assays:
Mus musculus [1] = species on record: Mus musculus; assay: Toxicity assessed as reduction of body weight in mouse; format: organism-based; details: in vivo
MDA-MB-231 = assay: Cytotoxicity against ERalpha negative human MDA-MB-231 cells; format: functional, cell-based
MCF7 [2] = assay: Cytotoxicity against ERalpha positive human MCF7 cells; format: functional, cell-based; details: for EC50: read-out: ED50 (the source's name)
PC-3 = assay: Cytotoxicity against ERbeta positive human PC3 cells; format: functional, cell-based
A2780 = assay: Cytotoxicity against ERbeta negative human A2780 cells; format: functional, cell-based
MCF-7 (Homo sapiens) = assay: Ratio of IC50 for ERalpha positive human MCF-7 cells to IC50 for ERalpha negative human MDA-MB-231 cells
[3] = Half life in presence of 50 ug/mL beta-glucuronidase assessed as taxol release; format: ADME
[4] = Half life in presence of 30 ug/mL beta-glucuronidase assessed as taxol release at 30 ug/mL; format: ADME
LoVo [5] = assay: Ratio of IC50 of drug for human LoVo cells to IC50 of taxol for human LoVo cells; format: functional
LoVo [6] = assay: Cytotoxicity against human LoVo cells in presence of beta-glucuronidase; format: functional, cell-based
LoVo [7] = assay: Ratio of IC50 of drug for human LoVo cells to IC50 of taxotere for human LoVo cells; format: functional
[8] = Aqueous solubility of the compound; format: physicochemical; details: aqueous solution
[9] = Half life in PBS buffer assessed as taxol circulation time at pH 7; format: ADME
MCF7 [10] = assay: Cytotoxicity against human MCF7 cells; format: functional, cell-based
EVSA-T = assay: Cytotoxicity against human EVSA-T cells; format: functional, cell-based
[11] = Half life in presence of 10 uM beta-glucuronidase assessed as taxol release at 100 uM; format: ADME
OVCAR-3 [12] = assay: Cytotoxicity against human OVCAR-3 cells; format: functional, cell-based
OVCAR-3 [13] = assay: Cytotoxicity against human OVCAR-3 cells in presence of beta-glucuronidase; format: functional, cell-based
HT-29 = assay: Cytotoxicity against human HT29 cells; format: functional, cell-based
[14] = Half life at pH 7; format: ADME; details: buffer
[15] = Half life at pH 5; format: ADME; details: buffer
Mus musculus [16] = assay: Reduction of body weight in human L2987 xenografted athymic mouse at 125 mg/kg; format: functional; parameters: scale not given: the % may be the effect or the level left
[17] = Half life in DTT buffer assessed as taxol release; format: ADME
Mus musculus [18] = species on record: Mus musculus; assay: Survival of p388 tumor bearing mouse after 30 days; format: functional, organism-based
[19] = Cytotoxicity against human IGROV cells; format: functional, cell-based
[20] = test system: M19 melanoma cell line (human); assay: Cytotoxicity against human M19 melanoma cells
L2987 [21] = assay: Cytotoxicity against human L2987 cells; format: functional, cell-based
L2987 [22] = assay: Cytotoxicity against human L2987 cells in presence of DTT; format: functional, cell-based

CC(=O)O[C@H]1C(=O)[C@@]2(C)[C@H]([C@H](OC(=O)c3ccccc3)[C@]3(O)C[C@H](OC(=O)[C@H](OC(=O)CN(C)CC(=O)NCCOCCOCCOCCNC(=O)CCC(NC(=O)c4ccc(NCc5cnc6nc(N)[nH]c(=O)c6n5)cc4)C(=O)O)[C@@H](NC(=O)c4ccccc4)c4ccccc4)C(C)=C1C3(C)C)[C@]1(OC(C)=O)CO[C@@H]1C[C@@H]2O (some centres not stated)
Activity (Mus musculus [1]): Non-toxic

CC(=O)O[C@H]1C(=O)[C@@]2(C)[C@H]([C@H](OC(=O)c3ccccc3)[C@]3(O)C[C@H](OC(=O)[C@@H](OC(=O)CCC(=O)O[C@@H]4C[C@]5(C)[C@@H](O)CC[C@H]5[C@@H]5CCc6cc(O)ccc6[C@H]54)[C@@H](NC(=O)c4ccccc4)c4ccccc4)C(C)=C1C3(C)C)[C@]1(OC(C)=O)CO[C@@H]1C[C@@H]2O
IC50 (MDA-MB-231): 304 nM
IC50 (MCF7 [2]): 103 nM
IC50 (PC-3): 68 nM
IC50 (A2780): 1900 nM
Ratio IC50 (MCF-7 (Homo sapiens)): 3

CC(=O)O[C@H]1C(=O)[C@@]2(C)[C@H]([C@H](OC(=O)c3ccccc3)[C@]3(O)C[C@H](OC(=O)[C@H](OC(=O)N(C)CCN(C)C(=O)OCc4ccc(O)c(N)c4)[C@@H](NC(=O)c4ccccc4)c4ccccc4)C(C)=C1C3(C)C)[C@]1(OC(C)=O)CO[C@@H]1C[C@@H]2O
t1/2 [3]: 13 min

CC(=O)O[C@H]1C(=O)[C@@]2(C)[C@H]([C@H](OC(=O)c3ccccc3)[C@]3(O)C[C@H](OC(=O)C(OC(=O)N(C)CCN(C)C(=O)OCc4ccc(O[C@@H]5O[C@H](C(=O)O)[C@@H](O)[C@H](O)[C@H]5O)c(N)c4)[C@@H](NC(=O)c4ccccc4)c4ccccc4)C(C)=C1C3(C)C)[C@]1(OC(C)=O)CO[C@@H]1C[C@@H]2O (some centres not stated)
t1/2 [4]: 10 min
Ratio IC50 (LoVo [5]): 153
Activity (LoVo [6]): inactive

CC(=O)O[C@H]1C(=O)[C@@]2(C)[C@H]([C@H](OC(=O)c3ccccc3)[C@]3(O)C[C@H](OC(=O)[C@H](OC(=O)N(C)CCN(C)C(=O)OCc4ccc(O[C@@H]5O[C@H](C(=O)O)[C@@H](O)[C@H](O)[C@H]5O)c([N+](=O)[O-])c4)[C@@H](NC(=O)OC(C)(C)C)c4ccccc4)C(C)=C1C3(C)C)[C@]1(OC(C)=O)CO[C@@H]1C[C@@H]2O
t1/2 [4]: 10 min
Activity (LoVo [6]): inactive
Ratio IC50 (LoVo [7]): 337

CC(=O)O[C@H]1C(=O)[C@@]2(C)[C@H]([C@H](OC(=O)c3ccccc3)[C@]3(O)C[C@H](OC(=O)[C@H](OC(=O)C[C@H](O)C(=O)O)[C@@H](NC(=O)c4ccccc4)c4ccccc4)C(C)=C1C3(C)C)[C@]1(OC(C)=O)CO[C@@H]1C[C@@H]2O
solubility [8]: 200 µg/mL (≈ 206 µM)
t1/2 [9]: > 24 h
IC50 (MCF7 [10]): < 3 ng/mL
IC50 (EVSA-T): < 3 ng/mL

CC(=O)O[C@H]1C(=O)[C@@]2(C)[C@H]([C@H](OC(=O)c3ccccc3)[C@]3(O)C[C@H](OC(=O)[C@H](OC(=O)CC(C)(C)CNC(=O)O[C@@H]4O[C@H](C(=O)[O-])[C@@H](O)[C@H](O)[C@H]4O)[C@@H](NC(=O)c4ccccc4)c4ccccc4)C(C)=C1C3(C)C)[C@]1(OC(C)=O)CO[C@@H]1C[C@@H]2O.[Na+]
t1/2 [11]: 2 h
IC50 (OVCAR-3 [12]): 20 nM
IC50 (OVCAR-3 [13]): 0.6 nM

CC(=O)O[C@H]1C(=O)[C@@]2(C)[C@H]([C@H](OC(=O)c3ccccc3)[C@]3(O)C[C@H](OC(=O)[C@H](OC(=O)COCC(=O)NCCOCCOCCOCCNC(=O)CCC(NC(=O)c4ccc(NCc5cnc6nc(N)[nH]c(=O)c6n5)cc4)C(=O)O)[C@@H](NC(=O)c4ccccc4)c4ccccc4)C(C)=C1C3(C)C)[C@]1(OC(C)=O)CO[C@@H]1C[C@@H]2O (some centres not stated)
EC50 (MCF7 [2]): 0.0033 µg/mL (≈ 0.00211 µM)
EC50 (HT-29; read-out: ED50 (the source's name)): 2.9 ng/mL (≈ 0.00185 µM)
half-life [14]: 2400 min
half-life [15]: > 12.5 days

CC(=O)O[C@H]1C(=O)[C@@]2(C)[C@H]([C@H](OC(=O)c3ccccc3)[C@]3(O)C[C@H](OC(=O)[C@H](OC(=O)N(C)CCN(C)C(=O)OCc4ccc(O[C@@H]5O[C@H](C(=O)O)[C@@H](O)[C@H](O)[C@H]5O)c(N)c4)[C@@H](NC(=O)OC(C)(C)C)c4ccccc4)C(C)=C1C3(C)C)[C@]1(OC(C)=O)CO[C@@H]1C[C@@H]2O
t1/2 [4]: 10 min
Ratio IC50 (LoVo [5]): 187
Activity (LoVo [6]): inactive

CC(=O)O[C@H]1C(=O)[C@@]2(C)[C@H]([C@H](OC(=O)c3ccccc3)[C@]3(O)C[C@H](OC(=O)[C@H](OC(=O)C(C)(C)CCSSC[C@H](C)C(=O)N4CCC[C@@H]4C(=O)O)[C@@H](NC(=O)c4ccccc4)c4ccccc4)C(C)=C1C3(C)C)[C@]1(OC(C)=O)CO[C@@H]1C[C@@H]2O
Activity (Mus musculus [16]): 10%
t1/2 [17]: 25 min

CC(=O)O[C@H]1C(=O)[C@@]2(C)[C@H]([C@H](OC(=O)c3ccccc3)[C@]3(O)C[C@H](OC(=O)[C@H](O)[C@@H](NC(=O)c4ccccc4)c4ccccc4)C(C)=C1C3(C)C)[C@]1(OC(C)=O)CO[C@@H]1C[C@@H]2O [PACLITAXEL]
Activity (Mus musculus [18]): Toxic
IC50 (MDA-MB-231): 4.5 nM
EC50 (MCF7 [2]): 0.05 µg/mL (≈ 0.0586 µM)
solubility [8]: 10 µg/mL (≈ 11.7 µM)
IC50 (PC-3): 77 nM
IC50 (A2780): 25 nM
IC50 (OVCAR-3 [12]): 0.2 nM
IC50 [19]: 0.01 µg/mL (≈ 0.0117 µM)
Activity (OVCAR-3 [13]): inactive
IC50 (LoVo [6]): 90 nM
IC50 (HT-29): 0.03 µg/mL (≈ 0.0351 µM)
IC50 [20]: < 3 ng/mL

CC(=O)O[C@H]1C(=O)[C@@]2(C)[C@H]([C@H](OC(=O)c3ccccc3)[C@]3(O)C[C@H](OC(=O)[C@H](OC(=O)CCc4ccc(NC(=O)O[C@@H]5O[C@H](C(=O)[O-])[C@@H](O)[C@H](O)[C@H]5O)cc4)[C@@H](NC(=O)c4ccccc4)c4ccccc4)C(C)=C1C3(C)C)[C@]1(OC(C)=O)CO[C@@H]1C[C@@H]2O.[Na+]
t1/2 [11]: 0.75 h
IC50 (OVCAR-3 [12]): 27 nM
IC50 (OVCAR-3 [13]): 1.1 nM

CC(=O)O[C@H]1C(=O)[C@@]2(C)[C@H]([C@H](OC(=O)c3ccccc3)[C@]3(O)C[C@H](OC(=O)[C@H](OC(=O)C(C)(C)CCSS[C@@H]4C[C@H](CO)[C@@H](O)[C@H](O)[C@H]4O)[C@@H](NC(=O)c4ccccc4)c4ccccc4)C(C)=C1C3(C)C)[C@]1(OC(C)=O)CO[C@@H]1C[C@@H]2O
t1/2 [17]: 12 min
IC50 (L2987 [21]): 5.7 µM
IC50 (L2987 [22]): 200 nM
